These are literature values, as cited in US20050137198A1, “Stable hydrazalazine pharmaceutical compositions” (priority 2003, published 2005).

SMILES strings stand for the structures. Like-named read-outs stand apart in the source and are kept apart here.

The subject of this data set is vascular smooth muscle.

Consider `NNc1nncc2ccccc12` [Hydralazine, 1-hydrazinophthalazine], for which the onset of action (given intravenously) was 10 to 20 min. Also, where the note is “in vivo”, the duration of action was 3 to 4 h, the onset of action is 10 to 30 min and the “time of maximum hypotensive effect” value was 10 to 80 min.
